# Assay results published in US6392055B1, “Synthesis and biological evaluation of analogs of the antimitotic marine natural product curacin A” (The University of Pittsburgh, priority 2000, dated 2002).
# Read-outs that look alike come from different tables or passages of the source.
# Key:
# PC-3 cells = test: Growth inhibition of prostate carcinoma cells (MTS); format: cell-based, human
# [1] = molecular target: tubulin (colchicine site); test: Inhibition of [3H]colchicine binding to tubulin; design: species or system bovine; conditions: for IC50: 5 μM [3H]colchicine, 1 μM tubulin; for % CBI 5 μM, (30° C.) / % CBI 5 μM, 37° C.: 5 μM compound; for % CBI 5 μM, (30° C.) / % CBI 50 μM, (30° C.): 30° C. (values in parentheses); for % CBI 50 μM, (30° C.) / % CBI 50 μM, 37° C.: 50 μM compound
# Protocol: Assays to determine whether 15mix-17mix inhibited binding of [^3H]colchicine to tubulin at both 30° C. and 37° C. were performed. This was accomplished using methods described previously. Kang, G.-J.; Getahun, Z.; Muzaffar, A.; Brossi, A.; Hamel, E. J. Biol. Chem. 1990, 265, 10255; Verdier-Pinard, P.; Lai, J.-Y.; Yoo, H.-D.; Yu, J.; Marquez, B.; Nagle, D. G.; Nambu, M.; White, J. D.; Falck, J. R.; Gerwick, W. H.; Day, B. W.; Hamel, E. Mol. Pharmacol. 1998, 53, 62. Briefly, 5 μM [^3H]colchicine (2.3 TBq/mmol), drug (1, 5, 10, 50, or 250 μM), or vehicle (DMSO, 5% v/v) were incubated at 30° C. for 15 minutes or at 37° C. for 10 minutes with 1 μM tubulin in the presence of 1 M monosodium glutamate, 0.1 M glucose-1-phosphate, 1 mM MgCl2, 1 mM GTP, and 0.5 mg/mL bovine serum albumin. The solutions were filtered through two stacks of DEAE-cellulose filters and the radioactivity in the filtrate was determined by scintillation spectrometry. Each series of determinations included positive controls of 1, 5, and/or 50 μM curacin A.
# MDA-MB231 cells = test: Growth inhibition of breast carcinoma cells (MTS); format: cell-based, human
# 2008 cells = test: Growth inhibition of ovarian carcinoma cells (MTS); format: cell-based, human
# [2] = tested on: MCF-7 human breast carcinoma cells; test: Mitotic index by immunofluorescence of phosphorylated core histone; format: cell-based; conditions: for concentration causing maximum mitotic block: 0.0075-15 μM, 14 hours
# Protocol: Further verification of the biological activity of compounds 17a-e was obtained in living tumor cells by quantifying their effect on mitotic index, essentially, counting the number of cells in the mitotic phase of the cell cycle. Antimitotic compounds increase the mitotic index, which can be quantified immunohistochemically using an antibody to a mitosis-specific phosphorylated core histone protein. MCF-7 human breast carcinoma cells were treated with increasing concentrations of compounds 17a-e (7.8-1000 nM), curacin A (3.1-400 nM), and vinblastine (0.08-10 nM) for 14-16 hours. The morphology of the cellular nuclei and the mircrotubule cytoskeleton, as well as the phosphorylation of a core histone protein, were visualized using a multiparameter immunofluorescence approach. […] Compound 17b induced cell rounding and the generalized loss of structured microtubules in the same cells. The mitotic index in drug-treated cells was measured. To assess the relative activity of compounds 17a-e and two known microtubule disrupting drugs, vinblastine and curacin A, the minimum effective concentration of each drug was measured.
# Phosphorylation of histone H3 occurs during mitosis and is linked to chromosome condensation. Thus, antimitotic agents cause an accumulation of cells containing […]. Wei, Y.; Mizzen, C. A.; Cook, R. G.; Gorovsky, M. A.; Allis, C. D. Proc. Natl Acad. Sci. USA 1998, 95, 7480. MCF-7 human breast carcinoma cells were treated with increasing concentrations (0.0075-15 μM) of 17mix and 17a-e for 14 hours and mitotic index quantities automatically. […] Vinblastine, a classic mitotic inhibitor, was tested over a range of 0.49 nM to 0.1 μM and caused a maximum accumulation of adherent cells in mitosis of 26%.
# [3] = tested on: isolated bovine brain tubulin; test: Inhibition of GTP/glutamate-induced tubulin polymerization (turbidimetric, 30° C.); format: biochemical; conditions: for IC50: read-out: 50% Tubulin Polymerization Inhibition Concentration (TPI) IC50, 30° C., 10 μM tubulin; for % TPI 5 μM: 5 μM compound
# [4] = Homo sapiens, PC-3, 48 h, read-out: GI50 PC-3 (48 h)
# [5] = incubation at 30° C. for 15 minutes, read-out: 50% Colchicine Binding Inhibitory Concentration (CBI), 30° C.
# [6] = incubation at 37° C. for 10 minutes, read-out: 50% Colchicine Binding Inhibitory Concentration (CBI), 37° C.
# [7] = Homo sapiens, MDA-MB-231, 48 h, read-out: GI50 MDA-MB231 (48 h)
# [8] = Homo sapiens, Ovarian carcinoma cell, 48 h, read-out: GI50 2008 (48 h)
# [9] = 96 h, read-out: GI50 PC3 (prostate) 96 h
# [10] = read-out: GI50 PC3 (prostate) 48 h, 48 h
# [11] = 96 h, read-out: GI50 MDA-MB231 (breast) 96 h
# [12] = read-out: GI50 MDA-MB231 (breast) 48 h, 48 h
# [13] = 96 h, read-out: GI50 2008 (ovarian) 96 h
# [14] = read-out: GI50 2008 (ovarian) 48 h, 48 h
GI50 (PC-3 cells; [4]) [µM],"IC50 [1, 5] [µM]","IC50 [1, 6] [µM]",GI50 (MDA-MB231 cells; [7]) [µM],GI50 (2008 cells; [8]) [µM],IC50 [3] [µM],GI50 (PC-3 cells; [9]) [µM],GI50 (PC-3 cells; [10]) [µM],"% CBI 5 μM, (30° C.) [1]","% CBI 5 μM, 37° C. [1] [%]","% CBI 50 μM, (30° C.) [1]","% CBI 50 μM, 37° C. [1] [%]",GI50 (MDA-MB231 cells; [11]) [µM],GI50 (MDA-MB231 cells; [12]) [µM],GI50 (2008 cells; [13]) [µM],GI50 (2008 cells; [14]) [µM],SMILES,fraction of cells exhibiting condensed chromatin and increased core histone phosphorylation ([2]; 14-16 hours),concentration causing maximum mitotic block [2],% TPI 5 μM [3] [%]
–,–,–,–,–,–,0.061 ± 0.059,0.13 ± 0.08,(35 ± 4) %,−35 ± 15,(63 ± 6) %,13 ± 12,0.27 ± 0.16,0.2 ± 0.11,0.18 ± 0.11,0.22 ± 0.09,C=CC[C@@H](CC/C(C)=C/C=C/CC/C=C\[C@@H]1CSC(C(C)(C)C)=N1)OC [JRC3],–,–,100
–,–,–,–,–,–,0.45 ± 0.09,0.24 ± 0.07,(38 ± 2) %,−21 ± 16,(43 ± 19) %,5 ± 13,0.25 ± 0.02,0.32 ± 0.2,0.25 ± 0.05,0.3 ± 0.17,C=CC[C@@H](CC/C(C)=C/C=C/CC/C=C\c1csc(C(C)(C)C)n1)OC [JRC4],–,–,100

# The next lines start with the molecule.
SMILES,GI50 (PC-3 cells; [4]) [µM],"IC50 [1, 5] [µM]","IC50 [1, 6] [µM]",GI50 (MDA-MB231 cells; [7]) [µM],GI50 (2008 cells; [8]) [µM],IC50 [3] [µM],GI50 (PC-3 cells; [9]) [µM],GI50 (PC-3 cells; [10]) [µM],"% CBI 5 μM, (30° C.) [1]","% CBI 5 μM, 37° C. [1] [%]","% CBI 50 μM, (30° C.) [1]","% CBI 50 μM, 37° C. [1] [%]",GI50 (MDA-MB231 cells; [11]) [µM],GI50 (MDA-MB231 cells; [12]) [µM],GI50 (2008 cells; [13]) [µM],GI50 (2008 cells; [14]) [µM],fraction of cells exhibiting condensed chromatin and increased core histone phosphorylation ([2]; 14-16 hours),concentration causing maximum mitotic block [2],% TPI 5 μM [3] [%]
"COc1cc(/C=C\CC/C=C/C=C(\C)CCC(O)c2cc3ccccc3s2)cc(OC)c1OC (stereo not shown) [Compound 17b, (4E,6E,10Z)-11-(3,4,5-Trimethoxyphenyl)-4-methyl-1-benzothiophen-2ylundeca-4,6,10-trien-1ol]",0.62 ± 0.05,9 ± 7,19 ± 2,0.23 ± 0.06,0.36 ± 0.001,1.4,–,–,–,–,–,–,–,–,–,–,large increase,–,–
"COc1cc(/C=C\CC/C=C/C=C(\C)CCC(O)c2cccs2)cc(OC)c1OC (stereo not shown) [Compound 17c, (4E,6E,10Z)-11-(3,4,5-Trimethoxyphenyl)-4-methyl-1-thiophen-2-ylundeca-4,6,10-trien-1-ol]",0.38 ± 0.08,39 ± 10,9 ± 3,0.28 ± 0.04,0.28 ± 0.02,1.2,–,–,–,–,–,–,–,–,–,–,–,sub-micromolar,–
"COc1cc(/C=C\CC/C=C/C=C(\C)CCC(O)c2cc3ccccc3o2)cc(OC)c1OC (stereo not shown) [Compound 17e, (4E,6E,10Z)-11-(3,4,5-Trimethoxyphenyl)-4-methyl-1-benzofuran-2-ylundeca-4,6,10-trien-1-ol]",0.31 ± 0.2,9 ± 4,28 ± 8,0.12 ± 0.07,0.27 ± 0.05,1.6,–,–,–,–,–,–,–,–,–,–,–,sub-micromolar,–
